The record followed here is patent publication US8163269B2, “Bioactive stents for type II diabetics and methods for use thereof” (priority 2004, dated 2012).

One assay deals with ECs. Kind of assay: adhesion assay with peptides conjugated to PEA polymer. The class given is cell-based, Human. As to conditions: for ability of peptide to bind to cells after conjugation / adhesion of ECs compared to SMCs on conjugated peptide versus unconjugated PEA-H polymer: peptide conjugated to PEA-H polymer; for adhesion relative to basal levels: assays 1 and 2. The protocol: (§1) The attachment factor, in a phosphate buffered saline (PBS) solution, was coated onto a non-tissue culture dish and allowed to adsorb overnight at 4° C. The following day the plate was blocked for 1 hour at room temperature with heat-inactivated, 0.2% bovine serum albumin (BSA) solution (in PBS) to prevent non-specific attachment. A timed adhesion assay was then conducted. The assay includes negative control wells coated only with PBS and positive control wells coated with fibronectin. So far, none of the adhesion factors tested has surpassed the cell adhesion and cell spreading induced by fibronectin. In addition to adhesion, spreading is also an important consideration in determining the suitability of a substrate. If the cells are not able to spread, it is unlikely that the cells will proliferate on that surface.
The first conjugation was done to the PEA-H version of the polymer (acid) since this polymer has suitable sites for conjugation. The peptides can be covalently bound to this polymer via a wide variety of suitable functional groups. For example, when the biodegradable polymer is a poly(ester amide) (PEA) containing Lysine residues, the carboxyl groups from the Lysine residues can be used to react with a complementary moiety on the peptide, such as an hydroxy, amino, thio moiety, and the like (5). Specifically, the PEA-H polymer with free COOH reacts with water soluble carbodiimide (WSC) and N-Hydroxysuccinimide (HOSu) to produce an activated ester, which, in turn, reacts with an amino functional group of a peptide to provide an amide linkage (FIG. 6B). By using a fluorescent dansyl-lysine (FIG. 5), the optimal reaction conditions for activation and conjugation were determined (FIG. 6A).
The conjugation of CS5 and GREDVDY peptides to the polymer was then performed using the same protocol (FIG. 6B).
A similar protocol (see flow chart FIG. 6B) was used to conjugate combinations of the acid polymer with PEA polymer of structure (I) containing acetylated ends and benzylated COOH groups, (PEA-AcBz) and PEA-TEMPO (50/50 and 10/90), respectively. By combining the conjugatable acid form with the other polymers, a determination could be made whether the presence of the recruitment peptide on the polymer conferred an advantage in EC recruitment.
Microscopic observations taken at 2 h, 4 h and 6 h from duplicate wells from two representative adhesion assays are summarized in Table 2 below.

Assay [1] relates to endothelial cells (ECs), HCAEC=Human Coronary Artery Endothelial Cells. In words: in vitro adhesion assay, attachment factor adsorbed onto non-tissue culture dish. The class given is cell-based. The note with it: for specificity of cell adhesion, ECs over SMCs: HCAEC versus HASMC, adsorbed peptide; for adhesion data among bioligands tested / cell adhesion and cell spreading compared with fibronectin positive control: adsorbed attachment factor.
From the text: Cell Recruitment to Bioactive Agents To select appropriate bioligands for use as recruitment factors in stent applications, an in vitro adhesion assay was developed. This assay can distinguish between endothelial cells (ECs) and smooth muscle cells (SMCs) to aid in selecting potential attachment factors. Both the ECs and SMCs used in these assays were purchased from Cambrex (Baltimore, Md.) (HASMC=Human Aortic Smooth Muscle Cells and HCAEC=Human Coronary Artery Endothelial Cells).
as §1
In addition to microscopic observations, cell adhesion was quantitated using an ATP assay. Data of a representative adhesion assay quantitation by ATP standard curve is shown in the graph in FIG. 4, which illustrates the comparative results obtained at 2, 4 and 6 hours into the assay. […] The cell spreading determined in microscopic observations may indicate that cell spreading can increase the overall degree of cell adhesion since more space is occupied by a well spread cell than by an adhered cell that has not spread on the surface, due to timing of data points or appropriateness of the substrate used. The ATP data are useful to support the observational findings of the adhesion assay but cannot replace the adhesion assay.

For assay [2], the system named is progenitor endothelial cells (PECs). In words: trial PEC isolation, plating on coated plates. The class given is cell-based, human. As to conditions: fibronectin-coated versus gelatin-coated plates. An excerpt:
PEC Isolations To establish the protocol for isolating the progenitor endothelial cells (PECs) from peripheral blood, blood from healthy, normal donors was used. A literature review generated multiple PEC isolation protocols (J.C.I. (2000) 105:71-77; Circ. (2003) 107:143-149; Circ. (2003) 107:1164-1169; Plast. Reconstruc. Surgr. (2004) 113:284; and Am. J. Physiol. Heart Circ. Physiol. (2004) 286:H1985-H1993). […] The flow chart in FIG. 2 presents a modified protocol followed in isolation of PECs.
Cells were isolated from ˜120 milliliters of peripheral blood and then single aliquots of cells were plated in Endothelial Basal Medium and 5% FBS (Cambrex). The media was changed every 4-5 days. The total cell number obtained from the isolations was donor-dependent and ranged from 40 million to 200 million cells.

No end group written: not given here.

As for GEEIQIGHIPREDVDYHLYP [CS5], in the assay on ECs, the “ability of peptide to bind to cells after conjugation” value is “did not alter their ability to bind to cells” and the “adhesion of ECs compared to SMCs on conjugated peptide versus unconjugated PEA-H polymer” value is reported as “adhered significantly better to the conjugated peptides than on the unconjugated PEA-H polymer”. For the same substance, in assay [1], the “specificity of cell adhesion, ECs over SMCs” value is “showed specificity for ECs over SMCs”; the “adhesion data among bioligands tested” value is given as “gave the most promising adhesion data”; the “cell adhesion and cell spreading compared with fibronectin positive control” value is on record as “neither of these peptide sequences equaled the large molecule fibronectin in cell adhesion or spreading”.

With GREDVDY, in the assay on ECs (10/90 PEA-H/PEA-TEMPO (H/T) conjugated to peptide), the “adhesion relative to basal levels” value was “increased adhesion over basal levels”. Besides, in the assay on ECs (50/50 PEA-H/PEA-Ac-Bz (H/Bz) conjugated to peptide), the “adhesion relative to basal levels” value is reported as “increased adhesion over basal levels”. Moreover, in the assay with ECs (Table 2 assays), the “cell recruitment, complete evaluation of assays with conjugated peptides on polymer” value was “more robust in cell recruitment than the longer (20 mer) CS5 peptide”. For the same substance, in the assay with ECs, the “ability of peptide to bind to cells after conjugation” value is “did not alter their ability to bind to cells” and the “adhesion of ECs compared to SMCs on conjugated peptide versus unconjugated PEA-H polymer” value is on record as “adhered significantly better to the conjugated peptides than on the unconjugated PEA-H polymer”. Further, in assay [1], the “specificity of cell adhesion, ECs over SMCs” value was “showed specificity for ECs over SMCs”; the “adhesion data among bioligands tested” value is given as “gave the most promising adhesion data”; the “cell adhesion and cell spreading compared with fibronectin positive control” value is on record as “neither of these peptide sequences equaled the large molecule fibronectin in cell adhesion or spreading”.

Consider fibronectin, for which the “attachment and growth of isolated cells on coated plates” value in assay [2] was “attach and grow better on fibronectin-coated plates than on gelatin-coated plates”.
